# In patent publication US20240207266A1, “METHODS FOR TREATING AND MONITORING PARKINSON'S DISEASE” (Denali Therapeutics Inc., priority 2021, published 2024):
# “Also recorded” adds a separate entry of the source.
# Assays:
# di-22:6-BMP = settings: monkeys; Fuji 2015, Baptista 2020; cited from earlier work
# [1] = Phase 1 first-in-human study, safety and tolerability, multiple-dose cohorts (Parts B, D, E); type: in vivo
# Procedure: This double-blind, placebo-controlled Phase 1 study comprised single-ascending dose (SAD) and 10-day, 14-day, and 28-day multiple-ascending dose (MAD) parts in healthy volunteers. BID=twice daily; PBO=placebo; QD=once daily.
# In a separate analysis of ≥1 TEAE in ≥2 subjects per treatment arm included the following additional TEAEs not listed above: ear pain (n=2; 105 mg QD 10-day cohort); nasopharyngitis (n=2; 225 mg QD 28-day cohort); asymptomatic COVID-19 (n=2; 400 mg BID 14-day cohort); somnolence (n=2; 250 mg BID 14-day cohort). 2 subjects also experienced presyncope associated with lumbar puncture (one each for 150 and 225 mg QD 28-day cohort).
# In the Phase 1 study in healthy volunteers, the demographics of participants was as follows: • 184 HVs (145 active, 39 placebo) were treated with single or multiple once daily (QD) or twice daily (BID) doses up to 28 days in the following study Parts: • Part A (SAD; young HVs; n=48): 100% male and median age of 25 (range, 18-50) years; • Part B (10-day MAD; young HVs; n=80): 99% male and median age of 26.5 (range, 18-50) years; • Part C (SAD: elderly HVs; n=8): 50% male and median age of 69 (range, 67-74) years; • Part D (28-day MAD; young HVs; n=17): 100% male and median age of 29 (range, 18-39) years; and • E (14-day MAD: young HVs: n=31): 100% male and median age 30 (range 18-50) years.
# This was a Phase 1, randomized, placebo-controlled, double-blind FIH study designed to determine the safety, tolerability. PK, and pharmacodynamics of compound I in healthy subjects.
# Part B of this study was composed of sequential multiple ascending dose (MAD) cohorts. Healthy subjects were enrolled in 8 cohorts (Cohorts B1-B8; n=10/cohort) and were administered compound I 15, 30, 45, 70, 105, 150, 225, or 300 mg or placebo (4:1 ratio) QD for 10 days.
# Part D was composed of a multiple-dose cohort (Cohort D1) of healthy subjects administered either compound I 225 mg (n=13) or placebo (n=4) QD for 28 days.
# Part E is composed of sequential MAD cohorts. Healthy subjects in Cohort E1 were administered compound I 150 mg or placebo BID (4:1 ratio) for 14 days (n=9) and subjects in Cohort E2 were administered compound I 250 mg or placebo BID (4:1 ratio) for 14 days (n=11). Subjects in the ongoing Cohort E3 are being administered […] or placebo BID (4:1 ratio) for 14 days.
# [2] = Phase 1b study in subjects with Parkinson's disease, safety and tolerability; type: in vivo, human
# Text: This study was a double-blind, placebo-controlled, parallel-design Phase 1b study with 28-day dosing, administered once daily in Parkinson's disease patients.
# GERD, gastroesophageal reflux disease: TEAE, treatment-emergent adverse event. ^aProcedural related includes (in order of frequency): procedural pain, post procedural contusion, post procedural hematoma, and procedural headache; ^bHypotension and orthostatic hypotension occurred in the same two patients.
# A total of 36 patients with PD (26 active, 10 placebo) were treated with up to 300 mg QD for 28 days (FIG. 8).
# This was a Phase 1b, randomized, placebo-controlled, double-blind study designed to determine the safety, tolerability, PK, and pharmacodynamics of compound I in subjects with PD. The conduct of this study has been completed and the clinical study report is in progress. In Part 1, subjects were administered compound I 80 mg or placebo QD (1:1 ratio) for 28 days (n=8). In Part 2, subjects were administered compound I 80 or 130 mg or placebo QD (1:2:1 ratio) for 28 days (n=17). In Part 3, subjects were administered compound I 300 mg or placebo QD (4:1 ratio) for 28 days (n=11).
# [3] = Clinical safety across the Phase 1 and Phase 1b studies (conclusions); type: in vivo, human
# Text: Based on the 2-fold increase in kinase activity associated with LRRK2 G2019S point mutations, reduction of whole-blood pS935 LRRK2 of ≥50% at trough in ≥50% of the study subjects represents a minimal pharmacodynamic target.
# Safety data from Phase 1 first in human study in healthy subjects and Phase 1b study in subjects with PD are summarized below.
# The most common TEAE in compound I-treated participants was headache.
# pS935 LRRK2 = molecular target: T1, pS935 LRRK2 (Homo sapiens, UniProt Q5S007); test: pS935 LRRK2 in whole blood, MSD immunoassay (target engagement, Phase 1/1b); type: in vivo; settings: for reduction in pS935 compared with baseline: Phase 1 healthy volunteers
# T1 construct: from tissue; host or cells: human whole blood from clinical study subjects (healthy subjects, and subjects with PD in Phase 1b)
# T1 sequence (Q5S007 whole entry): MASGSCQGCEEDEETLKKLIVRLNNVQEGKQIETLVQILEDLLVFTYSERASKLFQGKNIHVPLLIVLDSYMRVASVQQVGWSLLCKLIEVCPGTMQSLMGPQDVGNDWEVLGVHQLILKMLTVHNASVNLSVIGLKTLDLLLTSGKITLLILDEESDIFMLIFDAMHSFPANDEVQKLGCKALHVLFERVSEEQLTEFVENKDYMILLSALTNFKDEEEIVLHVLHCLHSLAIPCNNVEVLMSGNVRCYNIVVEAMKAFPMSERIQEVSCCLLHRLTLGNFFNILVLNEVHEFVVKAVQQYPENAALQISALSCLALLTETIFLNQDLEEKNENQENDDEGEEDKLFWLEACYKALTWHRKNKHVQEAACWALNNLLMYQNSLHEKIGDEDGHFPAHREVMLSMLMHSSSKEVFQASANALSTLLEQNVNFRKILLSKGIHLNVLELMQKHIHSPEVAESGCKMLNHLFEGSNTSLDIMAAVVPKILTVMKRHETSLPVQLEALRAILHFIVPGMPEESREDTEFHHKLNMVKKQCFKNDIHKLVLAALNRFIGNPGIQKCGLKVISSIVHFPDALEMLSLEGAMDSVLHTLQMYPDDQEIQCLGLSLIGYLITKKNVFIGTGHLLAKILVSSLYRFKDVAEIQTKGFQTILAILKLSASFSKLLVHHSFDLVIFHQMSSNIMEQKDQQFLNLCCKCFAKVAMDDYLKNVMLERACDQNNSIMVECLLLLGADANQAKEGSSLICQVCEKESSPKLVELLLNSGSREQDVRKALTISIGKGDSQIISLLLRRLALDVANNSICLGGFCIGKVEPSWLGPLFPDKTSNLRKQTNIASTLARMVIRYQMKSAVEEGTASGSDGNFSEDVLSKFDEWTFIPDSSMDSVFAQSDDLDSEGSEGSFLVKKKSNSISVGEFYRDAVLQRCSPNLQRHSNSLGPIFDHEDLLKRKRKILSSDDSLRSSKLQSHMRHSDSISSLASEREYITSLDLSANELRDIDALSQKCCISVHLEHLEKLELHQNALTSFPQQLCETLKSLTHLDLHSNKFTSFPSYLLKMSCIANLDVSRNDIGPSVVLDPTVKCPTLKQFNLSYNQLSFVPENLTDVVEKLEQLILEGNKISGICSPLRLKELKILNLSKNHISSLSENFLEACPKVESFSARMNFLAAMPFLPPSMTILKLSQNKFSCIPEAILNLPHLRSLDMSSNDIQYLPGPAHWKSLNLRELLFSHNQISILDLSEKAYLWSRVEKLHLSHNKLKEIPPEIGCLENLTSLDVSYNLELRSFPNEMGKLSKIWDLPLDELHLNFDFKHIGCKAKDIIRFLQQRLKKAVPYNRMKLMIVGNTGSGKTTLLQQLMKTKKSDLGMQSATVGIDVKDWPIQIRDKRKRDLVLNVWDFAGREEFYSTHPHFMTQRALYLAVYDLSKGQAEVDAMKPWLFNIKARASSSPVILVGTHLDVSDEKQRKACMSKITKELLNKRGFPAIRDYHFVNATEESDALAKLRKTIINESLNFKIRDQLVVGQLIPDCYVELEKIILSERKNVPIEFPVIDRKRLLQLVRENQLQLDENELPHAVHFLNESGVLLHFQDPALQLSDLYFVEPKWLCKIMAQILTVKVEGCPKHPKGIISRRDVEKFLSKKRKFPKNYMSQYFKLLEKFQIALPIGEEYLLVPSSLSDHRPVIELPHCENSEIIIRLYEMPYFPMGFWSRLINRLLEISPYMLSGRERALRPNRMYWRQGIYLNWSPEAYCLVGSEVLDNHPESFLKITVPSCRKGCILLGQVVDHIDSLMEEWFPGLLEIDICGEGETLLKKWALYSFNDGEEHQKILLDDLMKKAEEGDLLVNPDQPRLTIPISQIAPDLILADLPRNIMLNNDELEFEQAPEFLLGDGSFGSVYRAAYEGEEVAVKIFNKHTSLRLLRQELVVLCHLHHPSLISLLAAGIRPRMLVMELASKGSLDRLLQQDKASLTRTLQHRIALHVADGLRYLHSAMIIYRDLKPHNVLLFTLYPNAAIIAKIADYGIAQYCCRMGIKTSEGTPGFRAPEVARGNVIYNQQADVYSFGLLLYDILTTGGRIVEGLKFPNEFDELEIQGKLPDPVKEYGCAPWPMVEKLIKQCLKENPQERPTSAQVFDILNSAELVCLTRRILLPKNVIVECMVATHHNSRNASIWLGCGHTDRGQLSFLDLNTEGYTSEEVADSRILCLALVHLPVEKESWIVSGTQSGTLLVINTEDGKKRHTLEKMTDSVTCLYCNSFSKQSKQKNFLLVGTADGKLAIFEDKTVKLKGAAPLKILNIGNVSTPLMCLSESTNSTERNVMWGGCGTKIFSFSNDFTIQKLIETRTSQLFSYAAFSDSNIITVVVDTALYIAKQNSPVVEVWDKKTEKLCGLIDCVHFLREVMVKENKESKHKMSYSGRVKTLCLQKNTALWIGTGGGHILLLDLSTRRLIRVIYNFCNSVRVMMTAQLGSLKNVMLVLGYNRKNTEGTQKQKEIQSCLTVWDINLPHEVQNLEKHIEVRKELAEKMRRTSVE
# Procedure: Frozen human whole blood samples were thawed and directly lysed in 96-well plates (100 μl whole blood sample with 100 μl lysis buffer). Samples were spun down (2,500×g for 20 minutes at 4° C.) before MSD assay.
# (§1) Capture antibodies were biotinylated using EZ-Link™ NHS-LC-LC-Biotin (Thermo Fisher, #21343), and detection antibodies were conjugated using Sulfo-TAG NHS-Ester (MSD, R31AA-1). 96-well (or 384-well) MSD GOLD Small Spot Streptavidin plates (MSD L45SSA-1) were coated with 25 μl (or 15 μl for 384 well plates) of capture antibody diluted in Diluent 100 (MSD, R50AA-2) for 1 hour at room temperature with 700 rpm shaking (1000 rpm for 384-well). After TBST wash (3×), 25 μl samples were added each well (10 μl for 384-well) and incubated at 4° C. overnight with agitation at 700 rpm. After TBST wash (3×), 25 μl of detection antibodies (15 μl for 384-well) were added each well diluted in TBST containing 25% MSD blocker A (MSD R93AA-1), together with rabbit (Rockland Antibodies D610-1000) and mouse gamma globin fraction (D609-0100). After 1 hour incubation at room temperature at 700 rpm, followed by TBST washes (3×), 150 μl MSD read buffer (MSD R92TC. 1:1 diluted with water) is added (35 μl for 384-well), and plates are read on the MSD Sector S 600.
# pT73 Rab10 = test: pRab10 in PBMCs, MSD immunoassay (pathway engagement, Phase 1/1b); type: in vivo, human
# Procedure: Blood was collected into CPT-sodium heparin tubes (BD BDAM362780) and PBMCs were then isolated following the manufacturer's protocol. The PBMCs were pelleted by centrifugation at maximum speed and then resuspended in PBMC lysis buffer (1× cell lysis buffer [CST catalog #9803] with PhosSTOP phosphatase inhibitor [Roche 04906837001], complete protease inhibitor [Roche 04693159001], and Benzonase [Sigma E8263]). The lysates were held on ice for 20 minutes, followed by centrifugation at maximum speed at 4° C. for 20 minutes. Supernatants were aliquoted and stored at −80° C. for later immunoassay analysis.
# as §1
# BMP(22:6/22:6) = test: Urine BMP(22:6/22:6) (lysosomal engagement, Phase 1/1b); type: in vivo, human; settings: HVs and patients with PD
# Text: BMP concentrations were normalized to creatinine concentrations (ng/mg).
# Lysosomal lipid BMP 22:6/22:6 (referred to throughout the document as “BMP”) measured in urine represents a mechanistic marker of correction of the lysosomal pathways downstream of LRRK2. BMP is a lysosomal phospholipid found exclusively on the intraluminal vesicles of late endosomes and lysosomes (Bissig and Gruenberg, Cold Spring Harb Perspect Biol. 2013; 5(10):a016816). Individuals with genetic or drug-induced lysosomal function disorders, including those with G2019S LRRK2 mutations, have increased levels of urine BMP (Lecommandeur et al., J Lipid Res. 2017:58(7): 1306-14; Alcalay et al., Mov Disord. 2013; 28(14):1966-71).
# [4] = CSF penetration, CSF/unbound plasma ratio (Phase 1/1b); type: in vivo, human
# [5] = Phase 1 first-in-human study, safety and tolerability, multiple-dose cohorts (Parts B, D, E); type: in vivo; settings: Part E, healthy subjects; procedural headache (250 mg BID), headache and malaise (40 mg BID)
# [6] = Part B, healthy subjects, 15-300 mg QD for 10 days
# [7] = Part D, healthy subjects, 225 mg QD for 28 days
# [8] = Part E, healthy subjects, BID for 14 days
# [9] = subjects with PD, 80, 130 or 300 mg QD for 28 days
# [10] = subjects with PD, 80-300 mg QD for 28 days
smiles,measurement,setting,value
CNc1nc(Nc2cn(C(C)(C)C#N)nc2C)ncc1C(F)(F)F [GNE-0877],urine di-22:6-BMP,di-22:6-BMP,decreased
CCNc1nc(Nc2cc(F)c(C(=O)N3CCOCC3)cc2OC)ncc1C(F)(F)F [GNE-7915],urine di-22:6-BMP,di-22:6-BMP,decreased
"CCNc1nc(Nc2cc(C(C)(C)n3nccn3)nn2C2CC2)ncc1C(F)(F)F [compound I, N2-(3-(2-(2H-1,2,3-triazol-2-yl)propan-2-yl)-1-cyclopropyl-1H-pyrazol-5-yl)-N4-ethyl-5-(trifluoromethyl)pyrimidine-2,4-diamine]",presyncope associated with lumbar puncture,"[1]; FIG. 9 legend, one each for 150 and 225 mg QD 28-day cohort",2 subjects
same,"changes in safety laboratory, vital signs, ECG, neurological examination, PFT or C-SSRS results",[1]; [6],No clinically significant changes
same,"deaths, other SAEs, AESIs or TEAEs leading to study drug discontinuation",[1]; [6],"No deaths, other SAEs (serious adverse events), AESIs (adverse events of special interests), or treatment-emergent adverse events (TEAEs) leading to study drug discontinuation were reported"
same,subjects who experienced a severe TEAE,[1]; [6],no subjects
same,subjects who experienced ≥1 TEAE,[1]; [6],56 (86.2%) subjects (%)
same,subjects who experienced ≥1 mild TEAE,[1]; [6],55 (84.6%) subjects (%)
same,subjects who experienced ≥1 moderate TEAE,[1]; [6],9 (13.8%) subjects (%)
same,tolerability,"[1]; Part B, healthy subjects, multiple doses up to 300 mg QD for 10 days",generally well tolerated
same,"changes in safety laboratory, vital sign, ECG, neurological examination, PFT or C-SSRS results",[1]; [7],No other clinically significant changes
same,"deaths, other SAEs or AESIs",[1]; [7],"No deaths, other SAEs, or AESIs were reported"
same,subjects who experienced a moderate or severe TEAE,[1]; [7],no subjects
same,subjects who experienced ≥1 TEAE,[1]; [7],10 (77%) subjects (%)
same,subjects who experienced ≥1 mild TEAE,[1]; [7],10 (77%) subjects (%)
same,tolerability,[1]; [7],generally well tolerated
same,tolerability,"[1]; Part E, Cohorts E1 and E2, healthy subjects, 150 and 250 mg BID for 14 days",generally well tolerated
same,subjects with moderate TEAEs,"[1]; Part E, healthy subjects, 250 mg BID for 14 days",2 subjects
same,SAEs or AESIs,[1]; [8],No SAEs or AESIs were reported
same,"changes in vital sign, ECG, telemetry, safety laboratory (including liver and renal function testing), PFT, neurological examination or C-SSRS results",[1]; [8],No clinically significant changes
same,subjects who experienced 1 TEAE,[1]; [8],25 (100.0%) subjects (%)
same,study-drug related discontinuations,"[1]; Part E, healthy subjects, one at 250 mg BID, one at 400 mg",Two study-drug related discontinuations
same,SAEs or AESIs,[2]; [9],No SAEs or AESIs were reported
same,tolerability,[2]; [9],generally well tolerated
same,"changes from baseline or trends in safety laboratory (including liver and renal function testing), ECG, neurological assessment, vital sign, PFT or C-SSRS results",[2]; [10],No other clinically significant individual changes from baseline or notable trends
same,subjects who experienced ≥1 TEAE,[2]; [10],23 (88.5%) subjects (%)
same,subjects with moderate TEAEs,[2]; [10],5 (19%) subjects (%)
same,additional subjects with TEAEs of mild orthostatic hypotension / mild hypotension plus orthostatic hypotension,"[2]; subjects with PD, 80 mg QD and 300 mg QD, resolved while on study drug",Two additional subjects
same,subjects with severe TEAEs,"[2]; subjects with PD, hypotension (130 mg QD), headache (300 mg QD), both considered not related to study drug",Two subjects
same,most common TEAE,[3]; HVs and patients with PD,headache
same,changes in pulmonary or renal function,"[3]; HVs and patients with PD, up to 28 days",no clinically meaningful changes
same,tolerability,"[3]; broad range of doses, HVs and patients with PD, up to 28 days",generally well tolerated
same,changes in potential LRRK2 on-target renal or pulmonary function,"[3]; healthy subjects and subjects with PD, up to 28 days of exposure",no apparent changes
same,safety and tolerability,"[3]; over 200 subjects, doses up to 400 mg BID for 14 days in healthy volunteers or 225 mg for 28 days",safe and generally well tolerated
same,target and pathway engagement,"pS935 LRRK2; HVs and patients with PD, at doses generally well tolerated",robust target engagement and pathway engagement; also recorded: Robust target and pathway engagement
same,reduction of pS935 in whole blood,"pS935 LRRK2; Phase 1b patients with PD, trough (predose), steady state (Day 28), all dose levels studied",robust reduction
same,reduction in pS935 compared with baseline,"pS935 LRRK2; whole blood, trough (predose) at steady state (Day 10 Cohort B, Day 28 Cohort D, Day 14 Cohort E), highest dose",≥ 80%
same,reduction in pS935 compared with baseline,"pS935 LRRK2; whole blood, trough (predose) at steady state, lowest clinically relevant dose",≥ 50%
same,pS935 reduced by at least,"pS935 LRRK2; whole blood, about 70 to 800 mg/day, stated as an aspect of the method",41-97%
same,pRab10 reduced by at least,"pT73 Rab10; PBMC, about 70 to 800 mg/day, stated as an aspect of the method",44-97%
same,reduction of phosphorylation of Rab10 (pRab10) in PBMCs,"pT73 Rab10; Phase 1 HVs, trough (predose), steady state (Day 10 Cohort B, Day 28 Cohort D, Day 14 Cohort E), highest dose",≥ 70%
same,pRab10 in PBMCs,"pT73 Rab10; Phase 1b patients with PD, trough (predose), steady state, all doses",reduced
same,lysosomal lipid BMP 22:6 in urine,BMP(22:6/22:6),dose-dependent reduction
same,CSF penetration based on the CSF/unbound plasma ratio,[4],high CSF penetration
same,subjects with severe TEAEs,[5],two subjects
